Measurements published in patent publication US20110077251A1, “NOVEL 17 BETA LUPANE DERIVATIVES” (priority 2009, published 2011).

Each molecule was assayed on HIVIIIB (assay: HIV-1 replication in MT2 cell line with 30% human serum (RT activity in supernatant)). Conditions: Human immunodeficiency virus 1, 120 h, MT2 cells, day 5 after infection, average if tested more than once, read-out: MT2 (HIVIIIB) with human serum IC50 range.
Format: cell-based
Method: HIV-1 Replication in MT2 cell line with and without 30% human serum: The cells are infected at a Multiciplicity of Infection (MOI) of 0.5 for 3 h and then washed twice with complete media to remove residual virus. Cells are then resuspended at 0.5×10^6/ml in complete medium (RPMI, 10% FBS, 1% sodium pyruvate), and seeded into 96-well plates (6.25×10^4/well). The cells are cultured in the presence or absence of various concentrations of test compounds in serial dilutions for 3 days at 37° C. The test compounds are serially diluted in complete medium supplemented or not with 30% human serum. After 3 days, 100 μL of cultured medium with cells are replaced with 120 μL of freshly diluted test compounds in complete medium containing or not 30% Human serum. The level of HIV-1 replication is determined at days 5 after infection by the presence of viral RT activity in harvested supernatant fluid. The IC50 values for the virus replication are determined by using GRAPHPAD PRISM software.
The IC50 of the compounds tested in accordance with the HIV replication activity assay MT2 (HIVIIIB) with or without human serum are represented in Table 6.

| SMILES | IC50 [µM] |
| --- | --- |
| C=C(C)[C@@H]1CC[C@]2(NC(=O)NCC(C)C)CC[C@]3(C)[C@H](CC[C@@H]4[C@@]5(C)CC[C@H](OC(=O)CC(C)(C)C(=O)O)C(C)(C)[C@@H]5CC[C@]43C)[C@@H]12 [Cpd 11-24, 3β-O-(3′,3′-Dimethylsuccinyl)-17β-(N′-isobutylureido)-28-norlup-20(29)-ene] | < 0.199 |
| C=C(C)[C@@H]1CC[C@]2(N)CC[C@]3(C)[C@H](CC[C@@H]4[C@@]5(C)CC[C@H](OC(=O)[C@H]6CC[C@@](C)(C(=O)O)C6(C)C)C(C)(C)[C@@H]5CC[C@]43C)[C@@H]12 [Cpd 9-2, 3β-O-[(1′S,3′R)-2′,2′,3′-Trimethyl-cyclopentane-3′-carboxylic acid-1′-carboxyl]-17β-amino-28-norlup-20(29)-ene] | < 0.199 |
| C=C(C)[C@@H]1CC[C@]2(NC(=O)NC3CCCCC3)CC[C@]3(C)[C@H](CC[C@@H]4[C@@]5(C)CC[C@H](OC(=O)CC(C)(C)C(=O)O)C(C)(C)[C@@H]5CC[C@]43C)[C@@H]12 [Cpd 11-22, 3β-O-(3′,3′-Dimethylsuccinyl)-17β-(N′-cyclohexyl-ureido)-28-norlup-20(29)-ene] | < 0.199 |
| C=C(C)[C@@H]1CC[C@]2(NC(=O)NC(C)(C)c3ccccc3)CC[C@]3(C)[C@H](CC[C@@H]4[C@@]5(C)CC[C@H](OC(=O)CC(C)(C)C(=O)O)C(C)(C)[C@@H]5CC[C@]43C)[C@@H]12 [Cpd 11-28, 3β-O-(3′,3′-Dimethylsuccinyl)-17β-[N′-(1-methyl-1-phenylethyl)-ureido]-28-norlup-20(29)-ene] | < 0.199 |
| C=C(C)[C@@H]1CC[C@]2(NC(=O)Nc3ccncc3)CC[C@]3(C)[C@H](CC[C@@H]4[C@@]5(C)CC[C@H](OC(=O)CC(C)(C)C(=O)O)C(C)(C)[C@@H]5CC[C@]43C)[C@@H]12 [Cpd 11-26, 3β-O-(3′,3′-Dimethylsuccinyl)-17β-(N′-pyridin-4-yl-ureido)-28-norlup-20(29)-ene] | < 0.199 |
| C=C(C)[C@@H]1CC[C@]2(NC(=O)N[C@H](C)c3ccccc3)CC[C@]3(C)[C@H](CC[C@@H]4[C@@]5(C)CC[C@H](OC(=O)CC(C)(C)C(=O)O)C(C)(C)[C@@H]5CC[C@]43C)[C@@H]12 [Cpd 11-27, 3β-O-(3′,3′-Dimethylsuccinyl)-17β-(N′-(R)-1-phenyl-ethyl-ureido)-28-norlup-20(29)-ene] | < 0.199 |
| C=C(C)[C@@H]1CC[C@]2(NC(=O)NC3CCC(F)(F)CC3)CC[C@]3(C)[C@H](CC[C@@H]4[C@@]5(C)CC[C@H](OC(=O)CC(C)(C)C(=O)O)C(C)(C)[C@@H]5CC[C@]43C)[C@@H]12 [Cpd 11-25, 3β-O-(3′,3′-Dimethylsuccinyl)-17β-(N′-4,4-difluorocyclohexyl-ureido)-28-norlup-20(29)-ene] | < 0.199 |
| C=C(C)[C@@H]1CC[C@]2(NC(=O)Nc3ccc(F)cc3)CC[C@]3(C)[C@H](CC[C@@H]4[C@@]5(C)CC[C@H](OC(=O)CC(C)(C)C(=O)O)C(C)(C)[C@@H]5CC[C@]43C)[C@@H]12 [Cpd 11-17, 3β-O-(3′,3′-Dimethylsuccinyl)-17β-(N′-4-fluorophenyl-ureido)-28-norlup-20(29)-ene] | < 0.199 |
| C=C(C)[C@@H]1CC[C@]2(NC(=O)c3nnc(C)o3)CC[C@]3(C)[C@H](CC[C@@H]4[C@@]5(C)CC[C@H](OC(=O)CC(C)(C)C(=O)O)C(C)(C)[C@@H]5CC[C@]43C)[C@@H]12 [Cpd 13-12, 3β-O-(3′,3′-Dimethylsuccinyl)-17β-[(5-methyl-[1,3,4]oxadiazole-2-carbonyl)-amino]-28-norlup-20(29)-ene] | < 0.199 |
| C=C(C)[C@@H]1CC[C@]2(NC(=O)c3cscn3)CC[C@]3(C)[C@H](CC[C@@H]4[C@@]5(C)CC[C@H](OC(=O)CC(C)(C)C(=O)O)C(C)(C)[C@@H]5CC[C@]43C)[C@@H]12 [Cpd 13-13, 3β-O-(3′,3′-Dimethylsuccinyl)-17β-[(thiazol-4-ylcarbonyl)-amino]-28-norlup-20(29)-ene] | < 0.199 |
